Source: ChEMBL document CHEMBL3872242, “Anti-inflammatory tetraquinane diterpenoids from a Crinipellis species” (Bioorg Med Chem, 2017)
Calls of active or inactive are those of the source. The rule behind the calls is not given here.

Legend:
MONO-MAC-6 [1] = assay: Inhibition of CCL3 mRNA expression in LPS/INF-gamma stimulated human MONO-MAC-6 cells at 3.8 uM preincubated for 1 hr followed by LPS/INF-gamma stimulation measured after 16 hrs; format: functional, cell-based
[2] = Down regulation of CCL2 mRNA expression in LPS/INF-gamma stimulated human MONO-MAC-6 cells at 3.8 uM preincubated for 1 hr followed by LPS/INF-gamma stimulation measured after 4 hrs by quantitative RT-PCR analysis; format: functional, cell-based
MONO-MAC-6 [3] = assay: Inhibition of LPS/INF-gamma induced CXCL10 promoter dependent transcription activity in human MONO-MAC-6 cells measured after 4 hrs by luciferase reporter gene assay; format: functional
MONO-MAC-6 [4] = assay: Inhibition of IL-23 mRNA expression in LPS/INF-gamma stimulated human MONO-MAC-6 cells at 3.8 uM preincubated for 1 hr followed by LPS/INF-gamma stimulation measured after 16 hrs; format: functional, cell-based
MONO-MAC-6 [5] = assay: Inhibition of CXCL10 mRNA expression in LPS/INF-gamma stimulated human MONO-MAC-6 cells at 3.8 uM preincubated for 1 hr followed by LPS/INF-gamma stimulation measured after 16 hrs; format: functional, cell-based
[6] = Down regulation of IL-8 mRNA expression in LPS/INF-gamma stimulated human MONO-MAC-6 cells at 3.8 uM preincubated for 1 hr followed by LPS/INF-gamma stimulation measured after 4 hrs by quantitative RT-PCR analysis; format: functional, cell-based
MONO-MAC-6 [7] = assay: Inhibition of CXCL11 mRNA expression in LPS/INF-gamma stimulated human MONO-MAC-6 cells at 3.8 uM preincubated for 1 hr followed by LPS/INF-gamma stimulation measured after 16 hrs; format: functional, cell-based
[8] = Down regulation of IL-6 mRNA expression in LPS/INF-gamma stimulated human MONO-MAC-6 cells at 3.8 uM preincubated for 1 hr followed by LPS/INF-gamma stimulation measured after 4 hrs by quantitative RT-PCR analysis; format: functional, cell-based
MONO-MAC-6 [9] = assay: Inhibition of CCL1 mRNA expression in LPS/INF-gamma stimulated human MONO-MAC-6 cells at 3.8 uM preincubated for 1 hr followed by LPS/INF-gamma stimulation measured after 16 hrs; format: functional, cell-based
[10] = Effect on constitutive activity of EF-1alpha expressed in human MONO-MAC-6 cells up to 50 uM measured after 4 hrs by luciferase reporter gene assay; format: ADME, cell-based; settings: mono-mac-6, 4 h
MONO-MAC-6 [11] = assay: Inhibition of human THP1 cells derived IL-8 promoter dependent transcription activity expressed in LPS/INF-gamma stimulated human MONO-MAC-6 cells measured after 4 hrs by luciferase reporter gene assay; format: functional, cell-based; settings: MONO-MAC-6, 4 h
[12] = Cytotoxicity against human MONO-MAC-6 cells up to 50 uM measured after 24 hrs by XTT assay; format: toxicity, cell-based; settings: mono-mac-6, 24 h
[13] = Down regulation of TNF-alpha mRNA expression in LPS/INF-gamma stimulated human MONO-MAC-6 cells at 3.8 uM preincubated for 1 hr followed by LPS/INF-gamma stimulation measured after 4 hrs by quantitative RT-PCR analysis; format: functional, cell-based
[14] = Effect on GAPDH mRNA expression in human MONO-MAC-6 cells at 2.52 to 3.8 uM preincubated for 1 hr followed by LPS/INF-gamma stimulation measured after 4 hrs by quantitative RT-PCR analysis; format: ADME, cell-based; settings: mono-mac-6, 4 h
MONO-MAC-6 [15] = assay: Inhibition of IL-8 mRNA expression in LPS/INF-gamma stimulated human MONO-MAC-6 cells at 3.8 uM preincubated for 1 hr followed by LPS/INF-gamma stimulation measured after 16 hrs; format: functional, cell-based
[16] = Inhibition of NF-kappaB (unknown origin) expressed in LPS/INF-gamma-stimulated human MONO-MAC-6 cells measured after 4 hrs by luciferase reporter gene assay; format: cell-based; settings: MONO-MAC-6, 4 h
[17] = Inhibition of IRF (unknown origin) expressed in LPS/INF-gamma-stimulated human MONO-MAC-6 cells assessed as reduction in ISRE dependent transcription activity measured after 4 hrs by luciferase reporter gene assay; format: cell-based; settings: MONO-MAC-6, 4 h
MONO-MAC-6 [18] = assay: Inhibition of IL-6 mRNA expression in LPS/INF-gamma stimulated human MONO-MAC-6 cells at 3.8 uM preincubated for 1 hr followed by LPS/INF-gamma stimulation measured after 16 hrs; format: functional, cell-based
MONO-MAC-6 [19] = assay: Inhibition of CXCL1 mRNA expression in LPS/INF-gamma stimulated human MONO-MAC-6 cells at 3.8 uM preincubated for 1 hr followed by LPS/INF-gamma stimulation measured after 16 hrs; format: functional, cell-based
MONO-MAC-6 [20] = assay: Inhibition of TNF-alpha mRNA expression in LPS/INF-gamma stimulated human MONO-MAC-6 cells at 3.8 uM preincubated for 1 hr followed by LPS/INF-gamma stimulation measured after 16 hrs; format: functional, cell-based
[21] = Down regulation of […] mRNA expression in LPS/INF-gamma stimulated human MONO-MAC-6 cells at 3.8 uM preincubated for 1 hr followed by LPS/INF-gamma stimulation measured after 4 hrs by quantitative RT-PCR analysis; format: functional, cell-based
[22] = Down regulation of COX-2 mRNA expression in LPS/INF-gamma stimulated human MONO-MAC-6 cells at 3.8 uM preincubated for 1 hr followed by LPS/INF-gamma stimulation measured after 4 hrs by quantitative RT-PCR analysis; format: functional, cell-based
[23] = Down regulation of TNF-alpha mRNA expression in LPS/INF-gamma stimulated human MONO-MAC-6 cells at 30 uM preincubated for 1 hr followed by LPS/INF-gamma stimulation measured after 4 hrs by quantitative RT-PCR analysis; format: functional, cell-based
MONO-MAC-6 [24] = assay: Inhibition of IL-8 mRNA expression in LPS/INF-gamma stimulated human MONO-MAC-6 cells at 30 uM preincubated for 1 hr followed by LPS/INF-gamma stimulation measured after 16 hrs; format: functional, cell-based
MONO-MAC-6 [25] = assay: Inhibition of CXCL1 mRNA expression in LPS/INF-gamma stimulated human MONO-MAC-6 cells at 30 uM preincubated for 1 hr followed by LPS/INF-gamma stimulation measured after 16 hrs; format: functional, cell-based
MONO-MAC-6 [26] = assay: Inhibition of CXCL11 mRNA expression in LPS/INF-gamma stimulated human MONO-MAC-6 cells at 30 uM preincubated for 1 hr followed by LPS/INF-gamma stimulation measured after 16 hrs; format: functional, cell-based
MONO-MAC-6 [27] = assay: Inhibition of TNF-alpha mRNA expression in LPS/INF-gamma stimulated human MONO-MAC-6 cells at 30 uM preincubated for 1 hr followed by LPS/INF-gamma stimulation measured after 16 hrs; format: functional, cell-based
[28] = Down regulation of IL-8 mRNA expression in LPS/INF-gamma stimulated human MONO-MAC-6 cells at 30 uM preincubated for 1 hr followed by LPS/INF-gamma stimulation measured after 4 hrs by quantitative RT-PCR analysis; format: functional, cell-based
[29] = Down regulation of CCL2 mRNA expression in LPS/INF-gamma stimulated human MONO-MAC-6 cells at 30 uM preincubated for 1 hr followed by LPS/INF-gamma stimulation measured after 4 hrs by quantitative RT-PCR analysis; format: functional, cell-based
MONO-MAC-6 [30] = assay: Inhibition of IL-6 mRNA expression in LPS/INF-gamma stimulated human MONO-MAC-6 cells at 30 uM preincubated for 1 hr followed by LPS/INF-gamma stimulation measured after 16 hrs; format: functional, cell-based
[31] = Effect on GAPDH mRNA expression in human MONO-MAC-6 cells at 30 to 60 uM preincubated for 1 hr followed by LPS/INF-gamma stimulation measured after 4 hrs by quantitative RT-PCR analysis; format: ADME, cell-based; settings: mono-mac-6, 4 h
[32] = Down regulation of COX-2 mRNA expression in LPS/INF-gamma stimulated human MONO-MAC-6 cells at 30 uM preincubated for 1 hr followed by LPS/INF-gamma stimulation measured after 4 hrs by quantitative RT-PCR analysis; format: functional, cell-based
[33] = Down regulation of IL-6 mRNA expression in LPS/INF-gamma stimulated human MONO-MAC-6 cells at 30 uM preincubated for 1 hr followed by LPS/INF-gamma stimulation measured after 4 hrs by quantitative RT-PCR analysis; format: functional, cell-based
[34] = Down regulation of […] mRNA expression in LPS/INF-gamma stimulated human MONO-MAC-6 cells at 30 uM preincubated for 1 hr followed by LPS/INF-gamma stimulation measured after 4 hrs by quantitative RT-PCR analysis; format: functional, cell-based
MONO-MAC-6 [35] = assay: Inhibition of CXCL10 mRNA expression in LPS/INF-gamma stimulated human MONO-MAC-6 cells at 30 uM preincubated for 1 hr followed by LPS/INF-gamma stimulation measured after 16 hrs; format: functional, cell-based
MONO-MAC-6 [36] = assay: Inhibition of CCL3 mRNA expression in LPS/INF-gamma stimulated human MONO-MAC-6 cells at 30 uM preincubated for 1 hr followed by LPS/INF-gamma stimulation measured after 16 hrs; format: functional, cell-based
MONO-MAC-6 [37] = assay: Inhibition of IL-23 mRNA expression in LPS/INF-gamma stimulated human MONO-MAC-6 cells at 30 uM preincubated for 1 hr followed by LPS/INF-gamma stimulation measured after 16 hrs; format: functional, cell-based
MONO-MAC-6 [38] = assay: Inhibition of CCL1 mRNA expression in LPS/INF-gamma stimulated human MONO-MAC-6 cells at 30 uM preincubated for 1 hr followed by LPS/INF-gamma stimulation measured after 16 hrs; format: functional, cell-based

CC(C)[C@H]1CC[C@]23C[C@@H]4[C@H](C)C(=O)[C@H]5O[C@]54[C@@]2(C)CC(=O)[C@]13C
inhibition (MONO-MAC-6 [1]): Active | Activity [2]: Active | inhibition (MONO-MAC-6 [3]): Dose-dependent effect | inhibition (MONO-MAC-6 [4]): Active | inhibition (MONO-MAC-6 [5]): Active | Activity [6]: Active | inhibition (MONO-MAC-6 [7]): Active | Activity [8]: Active | inhibition (MONO-MAC-6 [9]): Active | Activity [10]: Non-Toxic | IC50 (MONO-MAC-6 [11]): 0.9 to 1.2 µM | Activity [12]: Non-Toxic | Activity [13]: Active | Activity [14]: Non-Toxic | inhibition (MONO-MAC-6 [15]): Active | IC50 [16]: 0.32 to 0.4 µM | IC50 [17]: 0.8 to 1 µM | inhibition (MONO-MAC-6 [18]): Active | inhibition (MONO-MAC-6 [19]): Active | inhibition (MONO-MAC-6 [20]): Active | Activity [21]: Active | Activity [22]: Active

C=C[C@H]1CC[C@]23C[C@@H]4[C@H](C)[C@@H](O)[C@H]5O[C@@]45[C@@]2(C)CC(=O)[C@]13C
Activity [10]: Non-Toxic | IC50 (MONO-MAC-6 [11]): > 50 µM | Activity [12]: Non-Toxic | IC50 [16]: > 50 µM | IC50 [17]: > 50 µM

CC(C)[C@H]1CC[C@]23C[C@@H]4[C@H](C)C(=O)[C@H]5O[C@]54[C@@]2(C)[C@@H](O)C(=O)[C@]13C
inhibition (MONO-MAC-6 [3]): Dose-dependent effect | Activity [23]: Active | Activity [10]: Non-Toxic | IC50 (MONO-MAC-6 [11]): 7 to 7.5 µM | Activity [12]: Non-Toxic | inhibition (MONO-MAC-6 [24]): Active | inhibition (MONO-MAC-6 [25]): Active | inhibition (MONO-MAC-6 [26]): Active | inhibition (MONO-MAC-6 [27]): Active | IC50 [16]: 20 to 25 µM | IC50 [17]: 40 to 45 µM | Activity [28]: Active | Activity [29]: Active | inhibition (MONO-MAC-6 [30]): Active | Activity [31]: Non-Toxic | Activity [32]: Active | Activity [33]: Active | Activity [34]: Active | inhibition (MONO-MAC-6 [35]): Active | inhibition (MONO-MAC-6 [36]): Active | inhibition (MONO-MAC-6 [37]): Active | inhibition (MONO-MAC-6 [38]): Active
